Source: ChEMBL document CHEMBL1201862, “PubChem BioAssay data set” (2004)
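Compound exposure: 48 hours, 5 concentrations, 96-well plates. The concentration for 50% growth inhibition is given as GI50.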 Calls of active or inactive are those of the source. Rule as the data show it: active = GI50 up to about 1.1 µM and inactive = higher.

Assays:
Assay in all cases: inhibition of tumour cell growth, NCI panel, 48 h
SNB-75 = system: SNB-75
ACHN = system: ACHN
MCF7 = system: MCF7
SF-268 = system: SF-268
HT-29 = system: HT-29
UACC-257 = system: UACC-257
OVCAR-5 = system: OVCAR-5
MDA-N = system: MDA-N
U-251 = system: U-251
OVCAR-8 = system: OVCAR-8
NCI-H460 = system: NCI-H460
SK-MEL-5 = system: SK-MEL-5
SR = system: SR
RXF 393 = system: RXF 393
NCI/ADR-RES = system: NCI/ADR-RES
IGROV-1 = system: IGROV-1
NCI-H226 = system: NCI-H226
M14 = system: M14
UO-31 = system: UO-31
HOP-92 = system: HOP-92
786-0 = system: 786-0
BT-549 = system: BT-549
SN12C = system: SN12C
EKVX = system: EKVX
CCRF-CEM = system: CCRF-CEM
K562 = system: K562
T47D = system: T47D
TK-10 = system: TK-10
SK-OV-3 = system: SK-OV-3
SNB-19 = system: SNB-19
KM12 = system: KM12
A549 = system: A549
COLO 205 = system: COLO 205
HCT-116 = system: HCT-116
PC-3 = system: PC-3
SK-MEL-28 = system: SK-MEL-28
HCC 2998 = system: HCC 2998
UACC-62 = system: UACC-62
MDA-MB-231 = system: MDA-MB-231
SK-MEL-2 = system: SK-MEL-2
LOX IMVI = system: LOX IMVI
SF-295 = system: SF-295
RPMI-8226 = system: RPMI-8226
MOLT-4 = system: MOLT-4
NCI-H522 = system: NCI-H522
SF-539 = system: SF-539
MDA-MB-435 = system: MDA-MB-435
Hs-578T = system: Hs-578T
A498 = system: A498
NCI-H23 = system: NCI-H23
SW-620 = system: SW-620
OVCAR-4 = system: OVCAR-4
HL-60 = system: HL-60
HOP-62 = system: HOP-62
Malme-3M = system: Malme-3M
HCT-15 = system: HCT-15
CAKI-1 = system: CAKI-1
DU-145 = system: DU-145
OVCAR-3 = system: OVCAR-3

## c1csc(-c2ccc(-c3ccsc3)s2)c1
SNB-75
  GI50: 57.4 µM (inactive)
ACHN
  GI50: > 100 µM (inactive)
MCF7
  GI50: > 100 µM (inactive)
SF-268
  GI50: > 100 µM (inactive)
HT-29
  GI50: > 100 µM (inactive)
UACC-257
  GI50: > 100 µM (inactive)
OVCAR-5
  GI50: > 100 µM (inactive)
MDA-N
  GI50: > 100 µM (inactive)
U-251
  GI50: > 100 µM (inactive)
OVCAR-8
  GI50: > 100 µM (inactive)
NCI-H460
  GI50: > 100 µM (inactive)
SK-MEL-5
  GI50: > 100 µM (inactive)
SR
  GI50: > 100 µM (inactive)
RXF 393
  GI50: > 87.9 µM (inactive)
NCI/ADR-RES
  GI50: > 100 µM (inactive)
IGROV-1
  GI50: > 100 µM (inactive)
NCI-H226
  GI50: > 75.5 µM (inactive)
M14
  GI50: > 100 µM (inactive)
UO-31
  GI50: > 100 µM (inactive)
HOP-92
  GI50: > 100 µM (inactive)
786-0
  GI50: > 100 µM (inactive)
BT-549
  GI50: > 100 µM (inactive)
SN12C
  GI50: > 100 µM (inactive)
EKVX
  GI50: > 87.3 µM (inactive)
CCRF-CEM
  GI50: > 100 µM (inactive)
K562
  GI50: > 100 µM (inactive)
T47D
  GI50: > 27.4 µM (inactive)
TK-10
  GI50: > 100 µM (inactive)
SK-OV-3
  GI50: > 100 µM (inactive)
SNB-19
  GI50: > 100 µM (inactive)
KM12
  GI50: > 100 µM (inactive)
A549
  GI50: > 100 µM (inactive)
COLO 205
  GI50: > 100 µM (inactive)
HCT-116
  GI50: > 100 µM (inactive)
PC-3
  GI50: 97.5 µM (inactive)
SK-MEL-28
  GI50: > 100 µM (inactive)
HCC 2998
  GI50: > 100 µM (inactive)
UACC-62
  GI50: > 100 µM (inactive)
MDA-MB-231
  GI50: > 100 µM (inactive)
SK-MEL-2
  GI50: > 100 µM (inactive)
LOX IMVI
  GI50: > 100 µM (inactive)
SF-295
  GI50: > 100 µM (inactive)
RPMI-8226
  GI50: > 100 µM (inactive)
MOLT-4
  GI50: > 100 µM (inactive)
NCI-H522
  GI50: > 100 µM (inactive)
SF-539
  GI50: 68.5 µM (inactive)
MDA-MB-435
  GI50: > 100 µM (inactive)
Hs-578T
  GI50: 98.4 µM (inactive)
A498
  GI50: > 100 µM (inactive)
NCI-H23
  GI50: > 100 µM (inactive)
SW-620
  GI50: > 100 µM (inactive)
OVCAR-4
  GI50: > 100 µM (inactive)
HL-60
  GI50: > 100 µM (inactive)
HOP-62
  GI50: > 100 µM (inactive)
Malme-3M
  GI50: > 100 µM (inactive)
HCT-15
  GI50: > 100 µM
CAKI-1
  GI50: > 100 µM (inactive)

## NC(Cc1n[nH]c2ccccc12)C(=O)O (stereo not given)
SNB-75
  GI50: > 100 µM (inactive)
ACHN
  GI50: > 100 µM (inactive)
MCF7
  GI50: > 100 µM (inactive)
SF-268
  GI50: > 100 µM (inactive)
HT-29
  GI50: > 100 µM (inactive)
UACC-257
  GI50: > 100 µM (inactive)
OVCAR-5
  GI50: > 100 µM (inactive)
U-251
  GI50: > 100 µM (inactive)
OVCAR-8
  GI50: > 100 µM (inactive)
NCI-H460
  GI50: > 100 µM (inactive)
DU-145
  GI50: > 100 µM (inactive)
SK-MEL-5
  GI50: > 100 µM (inactive)
SR
  GI50: > 100 µM (inactive)
RXF 393
  GI50: > 100 µM (inactive)
NCI/ADR-RES
  GI50: > 100 µM (inactive)
IGROV-1
  GI50: > 100 µM (inactive)
NCI-H226
  GI50: > 100 µM (inactive)
M14
  GI50: > 100 µM (inactive)
UO-31
  GI50: > 100 µM (inactive)
HOP-92
  GI50: > 100 µM (inactive)
786-0
  GI50: > 100 µM (inactive)
BT-549
  GI50: > 100 µM (inactive)
SN12C
  GI50: > 100 µM (inactive)
EKVX
  GI50: > 100 µM (inactive)
CCRF-CEM
  GI50: > 100 µM (inactive)
K562
  GI50: > 100 µM (inactive)
T47D
  GI50: > 100 µM (inactive)
TK-10
  GI50: > 100 µM (inactive)
SK-OV-3
  GI50: > 100 µM (inactive)
SNB-19
  GI50: > 100 µM (inactive)
KM12
  GI50: > 100 µM (inactive)
A549
  GI50: > 100 µM (inactive)
COLO 205
  GI50: > 100 µM (inactive)
HCT-116
  GI50: > 100 µM (inactive)
PC-3
  GI50: > 100 µM (inactive)
OVCAR-3
  GI50: > 100 µM (inactive)
SK-MEL-28
  GI50: > 100 µM (inactive)
HCC 2998
  GI50: > 100 µM (inactive)
UACC-62
  GI50: > 100 µM (inactive)
MDA-MB-231
  GI50: > 100 µM (inactive)
SK-MEL-2
  GI50: 0.104 µM (active)
LOX IMVI
  GI50: > 100 µM (inactive)
SF-295
  GI50: > 100 µM (inactive)
RPMI-8226
  GI50: > 100 µM (inactive)
MOLT-4
  GI50: > 100 µM (inactive)
NCI-H522
  GI50: > 100 µM (inactive)
SF-539
  GI50: > 100 µM (inactive)
MDA-MB-435
  GI50: > 100 µM (inactive)
Hs-578T
  GI50: > 100 µM (inactive)
A498
  GI50: > 100 µM (inactive)
NCI-H23
  GI50: > 100 µM (inactive)
SW-620
  GI50: > 100 µM (inactive)
OVCAR-4
  GI50: > 100 µM (inactive)
HL-60
  GI50: > 100 µM (inactive)
HOP-62
  GI50: > 100 µM (inactive)
Malme-3M
  GI50: > 100 µM (inactive)
HCT-15
  GI50: > 100 µM
CAKI-1
  GI50: > 100 µM (inactive)
